Measurements published in ChEMBL document CHEMBL3507680, “University of Dundee, Gates Library screen for HepG2 cell viability”.

Experiment: Human HepG2 cell viability assay in 384 well format
Type: toxicity, cell-based
Parameters: dose 125 nL, time 70.5 hour; cytotoxicity at 70.5 h: concentration not given beside the values
Conditions: HepG2 cells, read-out: Inhibition

| Structure (SMILES) | cytotoxicity at 70.5 h [%] |
| --- | --- |
| O=C(CSc1ccc(F)c(F)c1)NS(=O)(=O)c1ccc2c(c1)OCCO2 | -14 |
| O=C(OCC1CCN(c2ccccc2)C1)c1cscn1 (stereo not given) | -103 |
| COc1ccccc1C(O)Cn1cc(C(=O)NCc2ccco2)nn1 (stereo not given) | 0.751 |
| OC[C@H]1CN2CCN(c3ccccn3)C[C@@H]2[C@@H]1c1ccccc1 | -5.54 |
| COc1ccc(N2CCN(C(=O)COc3c(C)occc3=O)CC2)cc1 | 2.1 |
| CO[C@@H]1CCC[C@@H](NC(=O)c2cccc(F)c2)[C@H]1O | -1.9 |
| Cc1ccc(=O)n(CC2(O)CCN(Cc3ccoc3)CC2)n1 | -3.06 |
| CCN(C(=O)CNc1cc(C)c(F)cc1C(N)=O)C1CC1 | 0.591 |
| NCCc1nc(N(Cc2nccs2)C2CC2)c2ccccc2n1 | 37.2 |
| Cc1cn2c(n1)CCC(NC(=O)c1cc(C3CC3)[nH]n1)C2 (stereo not given) | -4.74 |
| O=C(Nc1cccc(F)c1)C1CCCN1c1nccs1 (stereo not given) | 1.52 |
| COc1ccc(NC(=O)N2CCC3(CC2)NC(=O)CC3C(=O)O)c(C)c1 (stereo not given) | -1.09 |
| O=C(NCc1ccccc1)N1CCC(Oc2ncccc2Cl)CC1 | 11 |
| COc1ccc2[nH]nc(CN3CCC(C(=O)N4CCCCC4)CC3)c2c1 | -1.62 |
| CN1CCN(Cc2ccoc2)Cc2cccnc21 | -4.02 |
| FC(F)(F)Cc1noc(CN2CCCC2c2noc(C3CC3)n2)n1 (stereo not given) | -8.5 |
| CN(CCCSc1ccccc1)C(=O)Cn1ncc(N(C)C)cc1=O | -7.24 |
| O=C(CCC1CCCO1)NCCCO (stereo not given) | -18.3 |
| Cn1ccc2cc(C(=O)Nc3nc[nH]n3)ccc21 | 15.8 |
| CC(C)(C)c1ccn(C2(C(=O)O)CCN(c3ccncc3F)CC2)n1 | -8.89 |
| COc1ncnc2c1CCN(c1cc(C(F)(F)F)ncn1)CC2 | -6.15 |
| O=S(=O)(C1CC1)N1CCO[C@H]2[C@H](OCC3CCCC3)CC[C@@H]21 | 1.94 |
| CC1(C)CN(Cc2nnc(-c3cccnc3)o2)CC[C@]1(C)O | 8.67 |

| Structure (SMILES) | cytotoxicity at 70.5 h [%] |
| --- | --- |
| CC(=O)NC1CCCN(C(=O)Nc2nnc(C(C)C)s2)C1 (stereo not given) | 0.76 |
| COCCN1CCOCC12CCN(C(=O)c1c[nH]c3ccccc13)CC2 | -13.9 |
| CCc1cccc(N2CCC(NC(=O)C3CCCO3)CC2)c1 (stereo not given) | -3.65 |
| O=C(NCCN1CCCCCC1=O)NCc1ccc(Cl)s1 | 2.1 |
| O=C(Nc1nnc(C(F)F)s1)NC(CCO)c1cccs1 (stereo not given) | 32.8 |
| O=C(NC1CC(=O)N(Cc2cccc(F)c2)C1)c1ccncc1 (stereo not given) | -8.7 |
| Cc1nc(C2CCCN(C(=O)COCc3ccccc3)C2)no1 (stereo not given) | -12.6 |
| CCCS(=O)(=O)NCCn1ccc(-c2cccs2)n1 | 25.9 |
| O=C(NC1CC(=O)N(C2Cc3ccccc3C2)C1)c1cc[n+]([O-])cc1 (stereo not given) | 9.2 |
| O=C(CC1NC(N2CCc3ccccc3C2)=NC1=O)Nc1ccccc1 (stereo not given) | -5.52 |
| CC(C)N1CCC(CC(=O)NC(C(=O)O)c2ccc(F)cc2)CC1 (stereo not given) | -10.8 |
| Cc1cc(NC(=O)N2CCN(C)CC2C)n(CCC#N)n1 (stereo not given) | 18.4 |
| CSCCCNC(=O)C(c1cccc(F)c1)N(C)C (stereo not given) | -4.98 |
| Cc1ccc(-c2nc(CN3CCn4c(C)nnc4C3)cs2)o1 | -7.11 |
| O=C(C1NCCc2[nH]cnc21)N1CCC2(C=Cc3ccccc32)CC1 (stereo not given) | -7.07 |
| O=C(Cc1cccnc1)N1CCC(c2nnc(-c3ccccn3)o2)CC1 | 25.5 |
| CCN(CC)CCN(C)Cc1cn(C)nc1-c1ccc2c(c1)OCCO2 | 23.5 |
| O=C(C1CCOCC1)N1CC[C@H]2[C@H]1CCN2c1nncs1 | -0.658 |
| O=C(CCc1ccccc1F)N1CCCC(OCc2cccnc2)C1 (stereo not given) | -9.56 |
| CC(C)N(C)Cc1noc2c1CN(C(=O)c1ccsc1)CC2 | -12.5 |
| Cc1ccc(NC(=O)Nc2c(O)oc3ccccc3c2=O)cc1C | -5.07 |
| Cc1cccc(C(=O)N2CCc3c(CN(C)C)nn(C)c3C2)n1 | -14.3 |
| CS(=O)(=O)NCC1CCCCN1C(=O)c1ccsc1 (stereo not given) | -2.66 |

| Structure (SMILES) | cytotoxicity at 70.5 h [%] |
| --- | --- |
| CC(C)NC(=O)CN1CCN(CC2CCOc3ccccc3C2)CC1 (stereo not given) | -7.34 |
| O=C(CN1C(=O)CC2(CCCC2)C1=O)NCCc1nccs1 | -14.1 |
| CCCNC(=O)NC(=O)CN(CC(C)O)c1ccccc1 (stereo not given) | -3.55 |
| Cc1ncc2c(c1CNC(=O)C1(C)CCCCO1)CCNC2 (stereo not given) | 0.49 |
| CN(C)CC(=O)N1C[C@@H]2CC[C@H](Oc3ccccc3Cl)[C@@H]2C1 | -15.6 |
| Cc1cc(CN(C)C(=O)C2CCS(=O)(=O)C2)no1 (stereo not given) | 2.42 |
| O=C(C1CCN(c2ccnc3ccc(Br)cc23)CC1)N1CCOCC1 | 8.35 |
| Cc1noc(C2CCN(C(=O)c3ccc(N(C)C)nc3)CC2)n1 | -29.1 |
| CCNC(=O)N1CC[C@@H](CC(=O)O)[C@@H](CC2=NCCc3ccccc32)C1 | -2.71 |
| CC(C)(CNC(=O)C1CCCCN1S(C)(=O)=O)N1CCOCC1 (stereo not given) | 38 |
| COCC(=O)Nc1ccc(Sc2nncn2C)c(Cl)c1 | 10.4 |
| Cn1cc(-c2cnc(-c3ccnn3C)nc2)cc1C(=O)N1CCCC1 | -4.76 |
| CNC(=O)c1ccc(C(=O)N2CCCC2c2cnn(C)c2)cn1 (stereo not given) | 1.99 |
| COCC(=O)Nc1cnc(N2CCN(c3ccccc3)CC2)nc1 | 2.64 |
| CC(C)OCc1nn(C)c2c1CCN(Cc1ccco1)C2 | -7.18 |
| Cc1ccc(F)cc1S(=O)(=O)N1C[C@@H](C)[C@@](C)(O)C1 | 14.7 |
| COc1cc(CNC(=O)Nc2cc(C(F)(F)F)c[nH]c2=O)ccn1 | 1.69 |
| O=C(N[C@@H]1CCN(C(=O)C2CCOCC2)C[C@H]1O)c1ccccn1 | -4.74 |
| c1ccc2cc(OCCCN3CCn4c(nnc4C4CC4)C3)ccc2c1 | -6.02 |
| CC(C)c1nnc(NC(=O)N(C)Cc2ccc(C(N)=O)cc2)s1 | -4.8 |
| CCN(CC)C(=O)c1ccc(-n2ncc(C#N)c2N)cc1 | 12.9 |
| CCOc1ccc(NC(=O)CN2CCN(c3nccn3C)CC2)cc1 | -2.94 |
| COc1cccc(OC)c1CN1CCC2(CC(Nc3ccncn3)C2)C1 (stereo not given) | -9.12 |

| Structure (SMILES) | cytotoxicity at 70.5 h [%] |
| --- | --- |
| NS(=O)(=O)N1CCc2ccc(NC(=O)Cc3ccccc3F)cc21 | 22.4 |
| CC(C)=CCN1CCN(Cc2cccc(C)n2)CC1CCO (stereo not given) | 6.26 |
| COc1ccc(C#N)cc1CSCCN1CCOCC1 | -9.88 |
| CCNC(=O)NC(c1ccc(C)cc1)c1cccc(S(C)(=O)=O)c1 (stereo not given) | -11 |
| CCCn1nc2c(cc1=O)CN(CCCN1CCCC1=O)CC2 | 7.69 |
| Cc1nc(CN2CCCC(CCc3ccc(F)c(F)c3)C2)c[nH]1 (stereo not given) | 19.5 |
| CN(C)CCN1CCCC12CCN(C(=O)c1cccnc1)CC2 | -3.11 |
| CC(C)CN1C(=O)CO[C@@H]2CN(C(=O)C3CCOC3)C[C@H]21 (stereo not given in full) | 39.9 |
| Cc1cc(NCCNc2ccc(C#N)cn2)nc(C)n1 | -6.84 |
| CC(C)(O)c1cc(CC2(NCc3ccco3)COC2)no1 | -7.88 |
| Cc1ccc(CN2CC[C@H]3[C@@H]2CCC(=O)N3CCN2CCCC2)s1 | 11.4 |
| NC(=O)NC(CC(=O)NCCc1ccc(F)cc1)c1ccccc1 (stereo not given) | 1.48 |
| Fc1ccc2nc([C@H]3CCNC3)[nH]c2c1 | -0.112 |
| O=C(CCc1ccc(Cl)s1)NCc1nnc2n1CCCCC2 | -15.9 |
| Cc1ccc(-c2nn(-c3cccc(F)c3)cc2CN(CCO)CCO)o1 | -17.7 |
| CS(=O)(=O)c1ccc(OCCNCc2cccc(O)c2)cc1 | -0.254 |
| CN(CCOc1ccccc1F)S(=O)(=O)CC1CCOCC1 | -8.77 |
| Cc1cc(CN(C)C(=O)c2ccc(N(C)C)nc2)no1 | -7.16 |
| COc1ccc(C2=NOC(CO)C2)cc1 (stereo not given) | -14.5 |
| CN(C)CCN1CCC2(CC1)CN(Cc1cccnc1)C(=O)CO2 | -4.21 |
| COCc1nc(CNc2cccc(-c3nc(C)c(C)o3)c2)cs1 | -16.1 |
| CCN1CC2(CCC1=O)CCN(Cc1cc(F)ccc1Cl)CC2 | -0.396 |
| COc1ccc(CN2C[C@H]3CN(c4cncnc4)C(=O)[C@H]3C2)cc1 | -5.39 |

| Structure (SMILES) | cytotoxicity at 70.5 h [%] |
| --- | --- |
| O=C(c1csc(I)c1)N1CCc2c(ncn2C2CC2)C1 | -3.47 |
| CCC(C)(C)n1nnnc1C(c1cccs1)N1CCCCC1 (stereo not given) | -3.15 |
| O=C(c1ccco1)N1C[C@@H]2CCN(c3cccnc3)C[C@@H]2C1 | -11.6 |
| CCC(CO)NCc1ccc(-c2ccccc2F)o1 (stereo not given) | -6.8 |
| O=S(=O)(NCCNc1ccc(-n2cccn2)nn1)c1ccccc1 | -2.97 |
| CCOC(=O)c1sc2ccsc2c1CNC(=O)CC | -3.4 |
| Cc1ccc(CN2CCC3(CC2)CC(c2cccnc2)C(=O)N3C)o1 (stereo not given) | -2.25 |
| CCn1nc(C)cc1C(=O)N1C[C@H]2CCC[C@@]2(COc2ccccn2)C1 | -7.77 |
| CC1COCCN1C(=O)c1ccc(=O)n(CCOc2ccccc2)n1 (stereo not given) | -5.11 |
| CCC(NC(=O)NCc1ccoc1C)c1c(C)nn(C)c1C (stereo not given) | -5.65 |
| COCCS(=O)(=O)N(Cc1cscn1)c1ccccc1 | -5.03 |
| OCC1CCCN1c1cc(NCCc2ccccn2)ncn1 (stereo not given) | 14.5 |
| Cc1noc(C(C)Nc2ccc3c(c2)CCC3)n1 (stereo not given) | 8.72 |
| CC(=O)c1cc(C(=O)N2Cc3ccccc3OC3(CCOCC3)C2)cs1 | 6.07 |
| Cc1ccc(C(=O)NCc2cccnc2N(C)C)o1 | -12.1 |
| CN1CC(Nc2nc3c(cnn3C(C)(C)C)c(=O)[nH]2)CCC1=O (stereo not given) | -2.42 |
| Cc1c(S(=O)(=O)N2CCOCC2)cc2c(C)cc(=O)n3c2c1CCC3 | 0.511 |
| Cc1nn(C)c2ncc(CN3CCN(Cc4ccco4)CC3)cc12 | -18.7 |
| CCc1cc(-c2cc[nH]n2)nc(N2CCCC2)n1 | -7.99 |
| CCN1CCN(C(C)CNC(=O)Nc2nnc(C(C)C)s2)CC1 (stereo not given) | -12.4 |
| Cc1cnc(NC(=O)N2CCCCCC2)s1 | -4.75 |
| CC(C)(C)n1cc(C(=O)NCCN2CCOCC2)c2cccnc21 | 6.12 |
| Cc1cnc(CN(Cc2ccccc2)CC2CCOCC2)cn1 | -3.35 |
